According to ChEMBL document CHEMBL1629706 (Antimicrob Agents Chemother, 2010):

Columns and labels:
Plasmodium falciparum [1] = experiment: microbe, parasite or virus in culture; details: isolate 8973
Description: Antimalarial activity against Plasmodium falciparum isolate 8973

Plasmodium falciparum [2] = experiment: microbe, parasite or virus in culture; details: isolate AK167
Description: Antimalarial activity against Plasmodium falciparum isolate AK167

Plasmodium falciparum [3] = experiment: microbe, parasite or virus in culture; details: isolate AK033 D-49
Description: Antimalarial activity against Plasmodium falciparum isolate AK033 D-49

Plasmodium falciparum [4] = experiment: microbe, parasite or virus in culture; details: isolate 9070
Description: Antimalarial activity against Plasmodium falciparum isolate 9070

Plasmodium falciparum [5] = experiment: microbe, parasite or virus in culture; details: isolate 9067
Description: Antimalarial activity against Plasmodium falciparum isolate 9067

Plasmodium falciparum [6] = experiment: microbe, parasite or virus in culture; details: 3D7
Description: Antimalarial activity against Plasmodium falciparum 3D7

Plasmodium falciparum [7] = experiment: microbe, parasite or virus in culture; details: isolate 8968
Description: Antimalarial activity against Plasmodium falciparum isolate 8968

Plasmodium falciparum [8] = experiment: Antimalarial activity against Plasmodium falciparum harboring pfcrt-76 mutant gene; type: functional, organism-based
Plasmodium falciparum [9] = experiment: microbe, parasite or virus in culture; details: isolate AK152 D-56
Description: Antimalarial activity against Plasmodium falciparum isolate AK152 D-56

Plasmodium falciparum [10] = experiment: microbe, parasite or virus in culture; details: isolate AK183
Description: Antimalarial activity against Plasmodium falciparum isolate AK183

Plasmodium falciparum [11] = experiment: microbe, parasite or virus in culture; details: isolate AK249
Description: Antimalarial activity against Plasmodium falciparum isolate AK249

Plasmodium falciparum [12] = experiment: microbe, parasite or virus in culture; details: isolate 8966
Description: Antimalarial activity against Plasmodium falciparum isolate 8966

Plasmodium falciparum [13] = experiment: microbe, parasite or virus in culture; details: isolate AK033 D-0
Description: Antimalarial activity against Plasmodium falciparum isolate AK033 D-0

Plasmodium falciparum [14] = experiment: microbe, parasite or virus in culture
Description: Antimalarial activity against Plasmodium falciparum harboring pfmdr1 gene with 2 DNNND repeat

Plasmodium falciparum [15] = experiment: microbe, parasite or virus in culture; remark: listed apart in the source
Description: Antimalarial activity against Plasmodium falciparum harboring pfmdr1 gene

Plasmodium falciparum [16] = experiment: microbe, parasite or virus in culture; details: isolate AK222
Description: Antimalarial activity against Plasmodium falciparum isolate AK222

Plasmodium falciparum [17] = experiment: microbe, parasite or virus in culture; details: isolate AK150 D-42
Description: Antimalarial activity against Plasmodium falciparum isolate AK150 D-42

Plasmodium falciparum [18] = experiment: microbe, parasite or virus in culture; details: isolate AK158
Description: Antimalarial activity against Plasmodium falciparum isolate AK158

Plasmodium falciparum [19] = experiment: Antimalarial activity against Plasmodium falciparum harboring pfmdr1-86 mutant gene with 2 DNNND repeat; type: functional, organism-based
Plasmodium falciparum [20] = experiment: microbe, parasite or virus in culture; details: isolate AK022D-0
Description: Antimalarial activity against Plasmodium falciparum isolate AK022D-0

Plasmodium falciparum [21] = experiment: microbe, parasite or virus in culture; details: isolate AK022 D-28
Description: Antimalarial activity against Plasmodium falciparum isolate AK022 D-28

Plasmodium falciparum [22] = experiment: microbe, parasite or virus in culture; details: isolate CDA-1553
Description: Antimalarial activity against Plasmodium falciparum isolate CDA-1553

Plasmodium falciparum [23] = experiment: Antimalarial activity against Plasmodium falciparum harboring 3 DNNND repeat; type: functional, organism-based
Plasmodium falciparum [24] = experiment: Antimalarial activity against Plasmodium falciparum harboring 1 DNNND repeat; type: functional, organism-based
Plasmodium falciparum [25] = experiment: Antimalarial activity against Plasmodium falciparum harboring pfcrt-76 mutant gene with 2 DNNND repeat; type: functional, organism-based
Plasmodium falciparum [26] = experiment: microbe, parasite or virus in culture; details: isolate 8885
Description: Antimalarial activity against Plasmodium falciparum isolate 8885

Plasmodium falciparum [27] = experiment: microbe, parasite or virus in culture; remark: listed apart in the source
Description: Antimalarial activity against Plasmodium falciparum harboring 2 DNNND repeat

Plasmodium falciparum [28] = experiment: microbe, parasite or virus in culture; details: isolate AK062
Description: Antimalarial activity against Plasmodium falciparum isolate AK062

Plasmodium falciparum [29] = experiment: Antimalarial activity against Plasmodium falciparum harboring pfmdr1-86 mutant gene; type: functional, organism-based
Plasmodium falciparum [30] = experiment: Antimalarial activity against Plasmodium falciparum; type: functional, organism-based

For `C=C[C@H]1CN2CC[C@H]1C[C@H]2[C@H](O)c1ccnc2ccc(OC)cc12` [QUININE], the IC50 (Plasmodium falciparum [1]) was 20 nM, the IC50 (Plasmodium falciparum [2]) was 227 nM and the IC50 (Plasmodium falciparum [3]) was 54.1 nM. The IC50 (Plasmodium falciparum [4]) was 41.5 nM, the IC50 (Plasmodium falciparum [5]) was 80.1 nM and the IC50 (Plasmodium falciparum [6]) was 27.1 nM. The IC50 (Plasmodium falciparum [7]) was 30.6 nM, the IC50 (Plasmodium falciparum [8]) was 164 nM and the IC50 (Plasmodium falciparum [9]) was 208 nM. For the same compound, the IC50 (Plasmodium falciparum [10]) was 73.9 nM, the IC50 (Plasmodium falciparum [11]) was 270 nM and the IC50 (Plasmodium falciparum [12]) was 55.8 nM. It also gave an IC50 (Plasmodium falciparum [13]) of 32.8 nM, an IC50 (Plasmodium falciparum [14]) of 92 nM and an IC50 (Plasmodium falciparum [15]) of 74 nM. It also gave an IC50 (Plasmodium falciparum [16]) of 210 nM, an IC50 (Plasmodium falciparum [17]) of 91.6 nM and an IC50 (Plasmodium falciparum [18]) of 234 nM. It also gave an IC50 (Plasmodium falciparum [19]) of 249 nM, an IC50 (Plasmodium falciparum [20]) of 42.4 nM and an IC50 (Plasmodium falciparum [21]) of 22 nM. It also gave an IC50 (Plasmodium falciparum [22]) of 333 nM, an IC50 (Plasmodium falciparum [23]) of 45 nM and an IC90 (Plasmodium falciparum [23]) of 125 nM. For the same compound, the IC90 (Plasmodium falciparum [24]) was 157 nM, the IC50 (Plasmodium falciparum [25]) was 234 nM and the IC50 (Plasmodium falciparum [26]) was 78.2 nM. For the same compound, the IC50 (Plasmodium falciparum [27]) was 227 nM, the IC50 (Plasmodium falciparum [28]) was 182 nM and the IC50 (Plasmodium falciparum [29]) was 208 nM.

`C[C@H]1[C@@H](O)O[C@@H]2O[C@@]3(C)CC[C@H]4[C@H](C)CC[C@@H]1[C@@]24OO3` [ARTENIMOL] gave an IC50 (Plasmodium falciparum [30]) of 1 nM.

`CCCCN(CCCC)CC(O)c1cc(Cl)cc2c1-c1ccc(Cl)cc1/C2=C/c1ccc(Cl)cc1` (stereo not drawn) [LUMEFANTRINE] was tested, and the IC50 (Plasmodium falciparum [30]) was 56 nM.

For `Clc1ccc2c(N3CCN(CCCN4CCN(c5ccnc6cc(Cl)ccc56)CC4)CC3)ccnc2c1` [PIPERAQUINE], the IC50 (Plasmodium falciparum [30]) was 56 nM.
